Columns and labels:
C. albicans SC5314 = assay: Disc-diffusion antimicrobial assay, ecologically relevant indicator strains; format: cell-based, Candida albicans; conditions: Suppl. Table 16, pure compounds 10 mg/mL in DMSO, 5 µl per disc, control Amph B 10 µg/mL (DMSO/H2O), DMSO control 0, n=1
Penicillium notatum JP36 = assay: Disc-diffusion antimicrobial assay, clinically relevant indicator strains; format: cell-based; conditions: Suppl. Table 17, 1 mg/mL in DMSO, 50 µl (50 µg) per disc, Amph B 10 µg/mL (DMSO/H2O), DMSO solvent control itself 12P, n=3
Method: (§1) Disc-diffusion antimicrobial activity assays against clinically relevant indicator strains.
(§2) Pure compounds (1 mg/mL in DMSO or 50% MeOH) were tested for their antimicrobial activity against a variety of bacterial and fungal indicator strains: B. subtilis 6633 (Bs), S. aureus SG511 (Sa1), E. coli SG458 (Ec), P. aeruginosa K799/61 (Pa), S. aureus 134/94 (MRSA) (Sa2), E. faecalis 1528 (VRSA) (Ef), Mycobacterium vaccae 10670 (Mv), Sporobomyces salmonicolor 549 (Ss), C. albicans C.A. (Ca), and Penicillium notatum JP36 (Pn). On each disc, 50 µl compound solution (50 µg) were applied. Antimicrobial activity was determined by measuring the inhibition zone surrounding the disc in mm (n=3).
(§3) Bs: B. subtilis 663, Sa1: S. aureus SG511, Ec: E. coli SG458, Pa: P. aeruginosa K799/61, Sa2: S. aureus 134/94 (MRSA), Ef: E. faecalis 1528 (VRSA), Mv: M. vaccae 10670, Ss: S. salmonicolor 549, Ca: C. albicans C.A., Pn: P. notatum JP36. P: colonies in the inhibition zone, p: single colonies in the inhibition zone. A: no to low inhibition, n.t.: not tested.
(§4) B. subtilis 663, Sa1: S. aureus SG511, Ec: E. coli SG458, Ca: C. albicans C.A., P: colonies in the inhibition zone, […]

[1] = system: Sporobomyces salmonicolor 549; assay: as above; format: cell-based; conditions: Suppl. Table 17, 1 mg/mL in DMSO, 50 µl (50 µg) per disc, Amph B 10 µg/mL (DMSO/H2O), DMSO solvent control itself 13P, n=3
Method: as §1, §2, §3, §4

C. albicans C.A. = assay: as above; format: cell-based; conditions: Amph B 10 µg/mL (DMSO/H2O)
Method: as §1, §2, §3, §4

P. monteilii DSM1388 = assay: Disc-diffusion antimicrobial assay, ecologically relevant indicator strains; format: cell-based, Pseudomonas monteilii; conditions: Suppl. Table 16, pure compounds 10 mg/mL in DMSO, 5 µl per disc, control Cip 5 µg/mL (HCl), DMSO control 0, n=1
K. rhizophila DSM11926 = assay: as above; format: cell-based, Kocuria rhizophila; conditions: Suppl. Table 16, pure compounds 10 mg/mL in DMSO, 5 µl per disc, control Cip 5 µg/mL (HCl), DMSO control 0, n=1
B. licheniformis DSM13 = assay: as above; format: cell-based, Bacillus licheniformis; conditions: Suppl. Table 16, pure compounds 10 mg/mL in DMSO, 5 µl per disc, control Cip 5 µg/mL (HCl), DMSO control 0, n=1
[2] = system: B. thuringiensis DSM104061; assay: as above; format: cell-based, Bacillus thuringiensis; conditions: Suppl. Table 16, pure compounds 10 mg/mL in DMSO, 5 µl per disc, control Cip 5 µg/mL (HCl), DMSO control 0, n=1
SARS-CoV2 Mpro = conditions: 200 µM; fluorimetric, 10 min; mean ± standard deviation, n=3
E. coli SG458 = assay: Disc-diffusion antimicrobial assay, clinically relevant indicator strains; conditions: Suppl. Table 17, 1 mg/mL in DMSO, 50 µl (50 µg) per disc, Cip 5 µg/mL (H2O/HCl), DMSO solvent control itself 12P, n=3
ZIKV NS2B-NS3 = conditions: 200 µM
SARS-CoV PLpro = conditions: 200 µM; fluorimetric, 10 min; mean ± standard deviation, n=3
cruzain = assay: Fluorimetric protease inhibition assay; format: biochemical, Trypanosoma cruzi; conditions: 200 µM, 10 min, mean ± standard deviation, n=3
[3] = system: Mycobacterium vaccae 10670; assay: Disc-diffusion antimicrobial assay, clinically relevant indicator strains; conditions: Suppl. Table 17, 1 mg/mL in DMSO, 50 µl (50 µg) per disc, Cip 5 µg/mL (H2O/HCl), DMSO solvent control itself 11P, n=3
cathepsin L = assay: Fluorimetric protease inhibition assay; format: biochemical; conditions: 200 µM, 10 min, mean ± standard deviation, n=3
P. aeruginosa K799/61 = conditions: Suppl. Table 17; disc diffusion; 1 mg/mL in DMSO, 50 µl (50 µg) per disc; Cip 5 µg/mL (H2O/HCl); DMSO solvent control itself 12P; n=3
rhodesain = conditions: 200 µM
urokinase (uPA) = assay: Fluorimetric protease inhibition assay; format: biochemical; conditions: 200 µM, 10 min, mean ± standard deviation, n=3
DENV2 NS2B-NS3 = assay: Fluorimetric protease inhibition assay; format: biochemical; conditions: 200 µM, 10 min, mean ± standard deviation, n=3
cathepsin B = assay: Fluorimetric protease inhibition assay; format: biochemical; conditions: 200 µM, 10 min, mean ± standard deviation, n=3
S. aureus 134/94 (MRSA) = assay: Disc-diffusion antimicrobial assay, clinically relevant indicator strains; conditions: Suppl. Table 17, 1 mg/mL in DMSO, 50 µl (50 µg) per disc, Cip 5 µg/mL (H2O/HCl), DMSO solvent control 0, n=3
S. aureus SG511 = assay: as above; conditions: Suppl. Table 17, 1 mg/mL in DMSO, 50 µl (50 µg) per disc, Cip 5 µg/mL (H2O/HCl), DMSO solvent control itself 11P, n=3
B. subtilis 6633 = assay: as above; conditions: Suppl. Table 17, 1 mg/mL in DMSO, 50 µl (50 µg) per disc, Cip 5 µg/mL (H2O/HCl), DMSO solvent control itself 12P, n=3
sortase A (SrtA) = conditions: 200 µM
E. faecalis 1528 = assay: Disc-diffusion antimicrobial assay, clinically relevant indicator strains; conditions: Suppl. Table 17, 1 mg/mL in DMSO, 50 µl (50 µg) per disc, Cip 5 µg/mL (H2O/HCl), DMSO solvent control itself 12p, n=3
[4] = Suppl. Table 17, disc diffusion, 1 mg/mL in DMSO, 50 µl (50 µg) per disc, DMSO solvent control 0, n=3

| Molecule | inhibition zone, Ca2 (C. albicans SC5314) | inhibition zone, Pn (Penicillium notatum JP36) | inhibition zone, Ss [1] | inhibition zone, Ca (C. albicans C.A.; [4]) | inhibition zone, Pm (P. monteilii DSM1388) | inhibition zone, Kr (K. rhizophila DSM11926) | inhibition zone, Bl (B. licheniformis DSM13) | inhibition zone, Bt [2] | Protease inhibition rate, Mpro (SARS-CoV2) (SARS-CoV2 Mpro) | inhibition zone, Ec (E. coli SG458) | Protease inhibition rate, PLpro (SARS-CoV) (SARS-CoV PLpro) | Protease inhibition rate, Cruzain (cruzain) | Protease inhibition rate, Cathepsin L (cathepsin L) | Protease inhibition rate, Rhodesain (rhodesain) | Protease inhibition rate, uPA (urokinase (uPA)) | Protease inhibition rate, DENV2 (DENV2 NS2B-NS3) | Protease inhibition rate, Cathepsin B (cathepsin B) | inhibition zone, Sa2 (S. aureus 134/94 (MRSA)) | inhibition zone, Sa1 (S. aureus SG511) | inhibition zone, Bs (B. subtilis 6633) | other results |
| --- | --- | --- | --- | --- | --- | --- | --- | --- | --- | --- | --- | --- | --- | --- | --- | --- | --- | --- | --- | --- | --- |
| C[C@@H]1[C@H](O)[C@@H](C)/C=C/C=C/C=C/C=C/C=C/C=C/C=C/[C@H](O[C@@H]2O[C@H](C)[C@@H](O)[C@H](N)[C@@H]2O)C[C@@H]2O[C@](O)(C[C@@H](O)C[C@@H](O)[C@H](O)CC[C@@H](O)C[C@@H](O)CC(=O)O[C@H]1C)C[C@H](O)[C@H]2C(=O)O [Amph B, Amphotericin B, reference compound] | 20 mm | 18p | 17p | 20 mm |  |  |  |  |  |  |  |  |  |  |  |  |  |  |  |  | inhibition zone, Ca (C. albicans C.A.; Suppl. Table 18, compound mixtures, total conc. 1 mg/mL in 50% MeOH, solvent control 0, n=1): 21 mm |
| O=C(O)c1cn(C2CC2)c2cc(N3CCNCC3)c(F)cc2c1=O [Cip, Ciprofloxacin, reference compound] |  |  |  |  | 33 mm | 22 mm | 35 mm | 28 mm |  |  |  |  |  |  |  |  |  |  |  |  |  |
| Pachycephalamide A [Compound 1] | 0 mm | 11p | 15p |  | 0 mm | 0 mm | 0 mm | 0 mm | 12.82 ± 8.66% | 0 mm | 1.01 ± 1.74% | 64.85 ± 1.50% | 61.88 ± 2.85% | 55.29 ± 2.15 | 8.32 ± 4.90% | 8.57 ± 3.83% | 55.19 ± 2.16% | 0 mm | 0 mm | 0 mm | Protease inhibition rate, ZIKV (ZIKV NS2B-NS3): 7.99 ± 3.53; inhibition zone, Mv [3]: 0 mm; inhibition zone, Pa (P. aeruginosa K799/61): 18P; Protease inhibition rate, SrtA (sortase A (SrtA)): 12.86 ± 2.35 |
| Pachycephalamide B [Compound 2] | 0 mm | 13p | 14p | 0 mm | 0 mm | 0 mm | 0 mm | 0 mm | 57.34 ± 9.94% | 15P | 14.94 ± 1.31% | 49.62 ± 3.44% | 50.42 ± 1.21% | 47.71 ± 2.73 | 0 ± 0% | 29.25 ± 7.00% | 54.94 ± 2.96% | 0 mm | 0 mm | 0 mm | Protease inhibition rate, ZIKV (ZIKV NS2B-NS3): 29.95 ± 3.36; inhibition zone, Pa (P. aeruginosa K799/61): 18P; Protease inhibition rate, SrtA (sortase A (SrtA)): 61.07 ± 4.93 |
| Pachycephalamide C [Compound 3] | 0 mm | 13p | 22p | 0 mm | 0 mm | 0 mm | 0 mm | 0 mm | 9.25 ± 7.28% | 15P | 0 ± 0% | 63.82 ± 1.43% | 62.51 ± 4.09% | 58.33 ± 1.36 | 0 ± 0% | 9.19 ± 3.06% | 56.16 ± 6.18% | 0 mm | 0 mm | 0 mm | Protease inhibition rate, SrtA (sortase A (SrtA)): 14.00 ± 4.62 |
| Pachycephalamide D [Compound 4] | 0 mm | 12p | 25p | 0 mm | 0 mm | 0 mm | 0 mm | 0 mm | 24.32 ± 2.62% | 13P | 2.05 ± 2.29% | 73.97 ± 1.54% | 78.67 ± 2.19% | 72.76 ± 1.07 | 0.56 ± 0.90% | 33.81 ± 3.08% | 73.50 ± 4.05% | 0 mm | 0 mm | 0 mm | Protease inhibition rate, ZIKV (ZIKV NS2B-NS3): 35.04 ± 1.21; inhibition zone, Mv [3]: 0 mm; inhibition zone, Pa (P. aeruginosa K799/61): 18P; Protease inhibition rate, SrtA (sortase A (SrtA)): 28.78 ± 4.59 |
| Pachycephalamide E [Compound 5] | 0 mm | 14p | 19p | 0 mm | 0 mm | 7 mm | 0 mm | 0 mm | 14.75 ± 7.06% | 15P | 0 ± 0% | 43.80 ± 2.31% | 47.31 ± 2.53% | 48.22 ± 1.63 | 0 ± 0% | 19.02 ± 6.12% | 47.52 ± 9.52% | 0 mm | 0 mm | 0 mm | Protease inhibition rate, ZIKV (ZIKV NS2B-NS3): 22.71 ± 1.47; inhibition zone, Ef (E. faecalis 1528): 13p; inhibition zone, Pa (P. aeruginosa K799/61): 17P; Protease inhibition rate, SrtA (sortase A (SrtA)): 17.94 ± 1.28 |

Reference: paper PMC11446937, “Bacteria from the Amycolatopsis genus associated with a toxic bird secrete protective secondary metabolites” (Nature Communications, 2024)
